Among the data in patent publication US6593337B1, “Tricyclic compounds useful as HIV reverse transcriptase inhibitors” (Bristol-Myers Squibb Pharma Company, priority 1999, dated 2003) are melting point values, retold here.

`Fc1ccc2c(c1)C(OCC1CC1)(C(F)F)c1cccnc1N2` (stereo not drawn) [No. 180, 7-Fluoro-5-cyclopropylmethoxy-5-difluoromethyl-5,10-dihydro-benzo[b][1,8]naphthyridine]: the melting point (as a rule, the temperature of the solid-liquid transition) lay within 137 to 138 °C.

In the case of `[O-][n+]1cccc2c1Nc1ccc(Cl)cc1C2(Cc1ccccn1)C(F)F` (stereo not drawn) [No. 187, 7—Chloro-5-pyridin-2-ylmethyl-5-difluoromethyl-5,10-dihydro-benzo[b][1,8]naphthyridine 1-oxide], the melting point lay within 210 to 211 °C.

With `[O-][n+]1cccc2c1Nc1ccc(Cl)cc1C2(OCC1CC1)C(F)F` (stereo not drawn) [No. 184, 7-Chloro-5-cyclopropylmethoxy-5-difluoromethyl-5,10-dihydro-benzo[b][1,8]naphthyridine 1-oxide], the melting point was in the range of 185 to 186 °C.

As for `[O-][n+]1cc(Cl)cc2c1Nc1ccc(Cl)cc1C2(OCC1CC1)C(F)F` (stereo not drawn) [No. 188, 3,7-Dichloro-5-cyclopropylmethoxy-5-difluoromethyl-5,10-dihydro-benzo[b][1,8]naphthyridine 1-oxide], the melting point was 163 to 164 °C.

In turn, `FC(F)C1(Cc2ccccn2)c2cc(Cl)ccc2Nc2ncccc21` (stereo not drawn) [No. 182, 7-Chloro-5-pyridin-2-ylmethyl-5-difluoromethyl-5,10-dihydro-benzo[b][1,8]naphthyridine] came in with a melting point of 204 to 205 °C.

Regarding `FC(F)C1(OCCC2CC2)c2cc(Cl)ccc2Nc2ncccc21` (stereo not drawn) [No. 181, 7-Chloro-5-(2-cyclopropyl-ethoxy)-5-difluoromethyl-5,10-dihydro-benzo[b][1,8]naphthyridine], the melting point lay in the range of 148 to 149 °C.

The molecule `CCN(CC)CC1(C(F)(F)F)c2cc(Cl)ccc2Nc2ncccc21` (stereo not drawn) [No. 94, 7-Chloro-5-(N,N-diethylaminomethyl)-5,10-dihydro-5-(trifluoromethyl)benzo[b][1,8]napthyridine] showed a melting point of 110 to 111 °C.

Turning to `[O-][n+]1cccc2c1Nc1ccc(Cl)cc1C2(OCCC1CC1)C(F)F` (stereo not drawn) [No. 186, 7—Chloro-5-(2-cyclopropyl-ethoxy)-5-difluoromethyl-5,10-dihydro-benzo[b][1,8]naphthyridine 1-oxide], the melting point is 175 to 176 °C.

`CC(C)COC1(C(F)(F)F)c2cccnc2Nc2ncc(Cl)cc21` (stereo not drawn) [No. 203, 3-Chloro-10-isobutoxy-10-trifluoromethyl-9,10-dihydro-1,8,9-triaza-anthracene] showed a melting point of 166 to 167 °C.

In turn, `[O-][n+]1cccc2c1Nc1ccc(F)cc1C2(OCC1CC1)C(F)F` (stereo not drawn) [No. 185, 7-Fluoro-5-cyclopropylmethoxy-5-difluoromethyl-5,10-dihydro-benzo[b][1,8]naphthyridine 1-oxide] registered a melting point of 166 to 167 °C.

In turn, `CC(C)N(C)CC1(C(F)(F)F)c2cc(Cl)ccc2Nc2ncccc21` (stereo not drawn) [No. 93] yielded a melting point of 157 to 158 °C.

For the molecule `[O-][n+]1cccc2c1Nc1ncc(Cl)cc1C2(OCC1CC1)C(F)(F)F` (stereo not drawn) [No. 201, 3-Chloro-10-cyclopropylmethoxy-10-trifluoromethyl-9,10-dihydro-1,8,9-triaza-anthracene 8-oxide], the melting point lay within 68 to 69 °C.
